Source: ChEMBL document CHEMBL5038639, “Designed Peptide Inhibitors of STEP Phosphatase-GluA2 AMPA Receptor Interaction Enhance the Cognitive Performance in Rats” (J Med Chem, 2022)
The source made the active and inactive calls. No cut-off for these calls is given here. Square brackets hold non-standard residues; d marks the D form. Peptide text beside a SMILES is read from it. pY = N[C@@H](Cc1ccc(OP(=O)(O)O)cc1)C(=O)O

Tests used:
[1] = organism: Rattus norvegicus; assay: Anxiolytic activity in scopolamine-induced Wistar rat assessed as increase in time spent in open arm measured at 15 uM for 5 min by elevated plus maze test; assay type: functional, organism-based
[2] = target: T1, Tyrosine-protein phosphatase non-receptor type 1 (Homo sapiens) (UniProt P18031); assay: Inhibition of […] (unknown origin) at 1 mM using pNPP as substrate
T1 sequence (whole entry): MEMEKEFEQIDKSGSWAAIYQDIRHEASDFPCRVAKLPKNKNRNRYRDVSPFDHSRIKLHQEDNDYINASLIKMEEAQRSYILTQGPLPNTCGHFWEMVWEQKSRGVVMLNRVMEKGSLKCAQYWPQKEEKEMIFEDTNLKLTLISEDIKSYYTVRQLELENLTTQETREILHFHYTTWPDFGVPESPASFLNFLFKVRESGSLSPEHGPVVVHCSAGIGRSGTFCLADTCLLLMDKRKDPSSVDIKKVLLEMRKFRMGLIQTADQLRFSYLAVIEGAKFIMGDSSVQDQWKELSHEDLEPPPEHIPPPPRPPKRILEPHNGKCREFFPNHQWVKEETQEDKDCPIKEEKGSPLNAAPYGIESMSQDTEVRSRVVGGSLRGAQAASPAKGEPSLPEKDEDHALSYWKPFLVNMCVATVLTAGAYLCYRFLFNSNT

[3] = target: T2, Tyrosine-protein phosphatase non-receptor type 2 (Homo sapiens) (UniProt P17706); assay: Inhibition of TC-PTP (unknown origin) at 1 mM using pNPP as substrate
T2 sequence (whole entry): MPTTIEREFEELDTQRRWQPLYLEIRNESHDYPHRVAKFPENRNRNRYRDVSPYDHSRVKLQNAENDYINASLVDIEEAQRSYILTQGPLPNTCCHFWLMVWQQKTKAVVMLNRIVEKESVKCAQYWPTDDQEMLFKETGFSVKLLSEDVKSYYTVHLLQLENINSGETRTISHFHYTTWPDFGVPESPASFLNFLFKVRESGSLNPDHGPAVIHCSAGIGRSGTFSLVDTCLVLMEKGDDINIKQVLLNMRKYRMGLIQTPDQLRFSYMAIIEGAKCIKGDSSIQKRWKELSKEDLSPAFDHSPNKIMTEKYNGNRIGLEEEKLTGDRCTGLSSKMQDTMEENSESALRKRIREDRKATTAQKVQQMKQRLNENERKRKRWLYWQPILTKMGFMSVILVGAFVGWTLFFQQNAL

[4] = organism: Rattus norvegicus; assay: Cognitive enhancing effect in Wistar rat model of scopolamine-induced short term memory impairment assessed as increase in spontaneous alteration at 15 uM measured by Y-maze method; assay type: functional, organism-based
[5] = organism: Rattus norvegicus; assay: Cognitive enhancing effect in Wistar rat model of scopolamine-induced working memory impairment assessed as reduction in number of working memory errors at 15 uM by Radial arm maze task; assay type: functional, organism-based
[6] = organism: Rattus norvegicus; assay: Cognitive enhancing effect in Wistar rat model of scopolamine-induced reference memory impairment assessed as reduction in number of reference memory error at 15 uM by Radial arm maze task; assay type: functional, organism-based
[7] = organism: Rattus norvegicus; assay: Antidepressant activity in Wistar rat model of scopolamine-induced depressive like behavior assessed as increased swimming time at 15 uM measured after 24 hrs by forced swimming test; assay type: functional, organism-based
[8] = organism: Rattus norvegicus; assay: Antidepressant activity in Wistar rat model of scopolamine-induced depressive like behavior assessed as decrease in immobility time at 15 uM measured after 24 hrs by forced swimming test; assay type: functional, organism-based
[9] = organism: Rattus norvegicus; assay: Anxiolytic activity in scopolamine-induced Wistar rat assessed as increase in number of entries in open arm measured at 15 uM for 5 min by elevated plus maze test; assay type: functional, organism-based
[10] = tested on: Rattus norvegicus; assay: Cognitive enhancing effect in Wistar rat model of scopolamine-induced short term memory impairment assessed as increase in spontaneous alteration at 5 mg/kg measured by Y-maze method; assay type: functional, organism-based
[11] = tested on: Rattus norvegicus; assay: Cognitive enhancing effect in Wistar rat model of scopolamine-induced working memory impairment assessed as reduction in number of working memory errors at 5 mg/kg by Radial arm maze task; assay type: functional, organism-based
[12] = organism: Homo sapiens; assay: Inhibition of GluA2-STEP32 C/S mutant (unknown origin) protein-protein interaction at 0.1 to 1 mM by Western blotting based pulldown assay; conditions: dose 0.1-1 mM
[13] = tested on: HEK293; assay: Inhibition of GluA2-STEP3 (unknown origin) protein-protein interaction expressed in HEK293 cells assessed as reduction in GluA2 dephosphorylation at pY876 residue at 0.1 mM incubated for 30 min by western blotting analysis; assay type: cell-based; conditions: Homo sapiens
[14] = tested on: HEK293; assay: Inhibition of GluA2-STEP3 (unknown origin) protein-protein interaction expressed in HEK293 cells assessed as reduction in GluA2 dephosphorylation at pY876 residue at 1 mM incubated for 30 min by western blotting analysis; assay type: cell-based; conditions: Homo sapiens
[15] = tested on: Hippocampus; assay: Effect on hippocampal population spike in Wistar rat assessed as increase in spike area and slope at 15 uM measured at 1 hr; assay type: functional, tissue-based
[16] = tested on: Hippocampus; assay: Effect on hippocampal population spike in Wistar rat assessed as increase in spike area and slope at 15 uM measured after 2 hrs; assay type: functional, tissue-based
[17] = tested on: Hippocampus; assay: Effect on hippocampal population spike in Wistar rat assessed as increase in amplitude at 15 uM measured after 3 hrs; assay type: functional, tissue-based
[18] = tested on: Hippocampus; assay: Effect on hippocampal population spike in Wistar rat assessed as decrease in population spike area at 1.5 mM measured upto 3 hrs; assay type: functional, tissue-based; conditions: time hrs <=3

inhibition [2]	inhibition [3]	inhibition [12]	Compound	Activity [1]	Activity [4]	Activity [5]	Activity [6]	Activity [7]	Activity [8]	Activity [9]	Activity [10]	Activity [11]	inhibition [13]	inhibition [14]	Activity [15]	Activity [16]	Activity [17]	Activity [18]
Active	Active		Ac-YGRKKRRQRRRATYKEGYNVYG-NH2	Active	Active	Active	Active	Active	Active	Active								
			COc1cc2c(cc1OC)C(=O)C(CC1CCN(Cc3ccccc3)CC1)C2 (centres undefined)								Active	Active						
Active	Active	Active	CC(=O)N[C@@H](Cc1ccc(O)cc1)C(=O)NCC(=O)N[C@@H](CCCNC(=N)N)C(=O)N[C@@H](CCCCN)C(=O)N[C@@H](CCCCN)C(=O)N[C@@H](CCCNC(=N)N)C(=O)N[C@@H](CCCNC(=N)N)C(=O)N[C@@H](CCC(N)=O)C(=O)N[C@@H](CCCNC(=N)N)C(=O)N[C@@H](CCCNC(=N)N)C(=O)N[C@@H](CCCNC(=N)N)C(=O)N[C@@H](C)C(=O)N[C@H](C(=O)N[C@@H](Cc1ccc(O)cc1)C(=O)N[C@@H](CCCCN)C(=O)N[C@@H](CCC(=O)O)C(=O)NCC(=O)N[C@@H](Cc1ccc(O)cc1)C(=O)N[C@@H](CC(N)=O)C(=O)N[C@H](C(=O)N[C@@H](Cc1ccc(OP(=O)(O)O)cc1)C(=O)NCC(N)=O)C(C)C)[C@@H](C)O (Ac-YGRKKRRQRRRATYKEGYNV[pY]G-NH2)	Active	Active	Active	Active	Active	Active	Active			Active					
Active	Active	Active	CC(=O)N[C@@H](Cc1ccc(O)cc1)C(=O)NCC(=O)N[C@@H](CCCNC(=N)N)C(=O)N[C@@H](CCCCN)C(=O)N[C@@H](CCCCN)C(=O)N[C@@H](CCCNC(=N)N)C(=O)N[C@@H](CCCNC(=N)N)C(=O)N[C@@H](CCC(N)=O)C(=O)N[C@@H](CCCNC(=N)N)C(=O)N[C@@H](CCCNC(=N)N)C(=O)N[C@@H](CCCNC(=N)N)C(=O)N[C@@H](CCC(=O)O)C(=O)NCC(=O)N[C@@H](Cc1ccc(O)cc1)C(=O)N[C@@H](CC(N)=O)C(=O)N[C@H](C(=O)N[C@@H](Cc1ccc(OP(=O)(O)O)cc1)C(=O)N[C@@H](CCC(=O)O)C(N)=O)C(C)C (Ac-YGRKKRRQRRREGYNV[pY]E-NH2)	Active	Active	Active	Active	Active	Active	Active			Active	Active	Active	inactive	Active	Active
Active	Active	Active	CC(=O)N[C@@H](Cc1ccc(O)cc1)C(=O)NCC(=O)N[C@@H](CCCNC(=N)N)C(=O)N[C@@H](CCCCN)C(=O)N[C@@H](CCCCN)C(=O)N[C@@H](CCCNC(=N)N)C(=O)N[C@@H](CCCNC(=N)N)C(=O)N[C@@H](CCC(N)=O)C(=O)N[C@@H](CCCNC(=N)N)C(=O)N[C@@H](CCCNC(=N)N)C(=O)N[C@@H](CCCNC(=N)N)C(=O)N[C@@H](CCC(=O)O)C(=O)NCC(=O)N[C@@H](Cc1ccc(O)cc1)C(=O)N[C@@H](CC(N)=O)C(=O)N[C@H](C(=O)N[C@@H](Cc1ccc(OP(=O)(O)O)cc1)C(N)=O)C(C)C (Ac-YGRKKRRQRRREGYNV[pY]-NH2)	Active	Active	Active	Active	Active	Active	Active			Active					
